Where two headings read alike, the source gives them in different places.
Key:
[1] = system: B16F10 and U87MG tumors; experiment: In vivo dynamic PET/CT imaging and time–activity curves; set-up: species or system nude mice (Balb/cAnNRj-Foxn1nu/nu); conditions: for visualization of B16F10 and U87MG tumors by PET/CT: PET/CT scans, MIPs 50–90 min post-injection; for time at which uptakes in kidneys and liver reached their maximum (TACs) / time at which the curves of both tumors approached a plateau (TACs): dynamic PET over 90 min, i.v.; for time at which the curves of both tumors approached a plateau (TACs): B16F10 and U87MG tumors
Description: (§1) For the evaluation of the in vivo pharmacokinetics, the two most promising HBPLs—[^18F]2 with the highest affinity to both target receptors and [^18F]4 with the highest hydrophilicity and still reasonable binding affinities—were selected. For PET/CT imaging, 6-week-old male nude mice (Balb/cAnNRj-Foxn1^nu/nu) were subcutaneously injected with 5 × 10^5 B16F10 cells into the right flank and 2.0–2.5 × 10^6 U87MG cells into the left flank to generate the respective receptor-positive tumors. When the tumors reached a sufficient size for imaging, each mouse was administered 4.15 ± 2.28 MBq of [^18F]2 or 3.95 ± 2.06 MBq of [^18F]4 via the lateral tail vein under isoflurane anesthesia. To determine the receptor specificity of both peptide parts of the labeled HBPLs and their relative contribution to overall tumor uptake, blocking experiments were also performed. […] After i.v. injection of the tracers, a dynamic PET scan, followed by a CT scan, was performed. The resulting PET/CT images and time–activity curves (TACs) are depicted in Figure 6, Figure 7 and Figure 8. After completion of the diagnostic scans, the mice were sacrificed, their organs (blood, spleen, liver, kidney, pancreas, lung, heart, brain, bone, muscle, tail, tumors, stomach, colon and small intestine) were collected and measured in a γ-counter for ex vivo biodistribution (see Supplementary Materials Table S1 for detailed results).
Briefly, 4–5-week-old male nude mice (Balb/cAnNRj-Foxn1^nu/nu) were obtained from Janvier. A dynamic PET scan over 90 min and a subsequent CT image over 20 min were acquired using a triple-modality Bruker Albira II small-animal PET/CT/SPECT scanner. Three animals were studied per group.
(§2) Each male nude mouse (six weeks old) was injected subcutaneously with 5 × 10^5 B16F10 cells into the right flank and 2.0–2.5 × 10^6 U87MG cells into the left flank. The health status and tumor growth of the mice were monitored regularly until the animals could be examined after 15–21 days, depending on the tumor size. For the in vivo experiments, the ^18F-radiolabeled compound was diluted in 0.9% saline to give a final EtOH concentration of <10%. Each mouse was injected with 4.15 ± 2.28 MBq of [^18F]2 or 3.95 ± 2.06 MBq of [^18F]4 via the lateral tail vein under isoflurane anesthesia. […] Each ^18F-labeled compound was studied with or without blocking in at least three mice. Mice were measured under isoflurane anesthesia in a small PET/SPECT/CT animal imaging system. First, a dynamic PET scan was performed over 90 min and the scan was framed in 29 timeframes (10 × 1 min, 10 × 2 min, 6 × 5 min, 3 × 10 min). Images were reconstructed using 12 iterations, a maximum likelihood expectation maximization (MLEM) algorithm including corrections for scattered radiation and decay and a voxel size of 0.5 mm. All PET scans were immediately followed by CT acquisition at a voltage of 45 kV and a current of 400 μA. The images were reconstructed using the filtered back projection (FBP) algorithm with a voxel size of 250 μm. The analysis of the data, including the generation of TACs of the kidneys, liver and tumors and the MIPs, was performed via PMOD (v3.8). For ex vivo biodistribution, the mice were sacrificed directly after the PET/CT scan. Organs (blood, spleen, liver, kidneys, pancreas, lungs, heart, brain, bone, muscle, tail, tumors, stomach, colon and small intestine) were collected, weighed and their radioactivity measured in a γ-counter. The percentage injected dose per gram (% ID/g) of each tissue was calculated from the determined values, organ weights, reference values and injected activity.

[2] = Stability of radiotracers in human serum (radio-HPLC); type: in vitro ADME; conditions: 37 °C, 120 min, mean ± SD, read-out: Stability: intact radiotracer after 120 min of incubation in human serum
Description: In addition to the investigation of the radiotracers’ lipophilicity, their stability in human serum was evaluated in order to determine possible stability issues of the newly developed agents. For this purpose, the respective ^18F-labeled HBPLs were incubated in human serum at 37 °C for 120 min. The results of these experiments are summarized in Table 1, and the corresponding radio-HPLC chromatograms for [^18F]2 as representative examples for all compounds studied are depicted in Figure 3A (see Supplementary Materials, Figure S91 for the results obtained for the other radioligands). In Figure 3B, the portions of intact radiotracer over the course of the stability experiments are depicted.
The radiotracer solutions were first diluted with 0.9% NaCl solution to give a final EtOH concentration of <10%. Then, 6 × 25 μL radiotracer solution was added to 6 × 100 μL human serum and incubated at 37°C for 120 min. At defined time points (5, 15, 30, 60, 90 and 120 min), 125 μL EtOH was added to one of the mixtures and the precipitation of serum proteins was supported by ice-cooling for 2 min. After centrifugation at 13.4 rpm for 2 min, the supernatant was analyzed by analytical radio-HPLC (0–100% MeCN + 0.1% TFA in 5 min). The experiment was performed for each compound trice by three independent experiments.

[3] = system: integrin αvβ3-positive U87MG tumors; experiment: Ex vivo biodistribution: uptake in U87MG tumors and tumor-to-organ ratios; set-up: species or system nude mice (Balb/cAnNRj-Foxn1nu/nu); conditions: c(RGDyK) blocking (200 μg coinjected); ex vivo after PET/CT scan; i.v.; n = 3
Description: as §1, §2

[4] = as above; set-up: species or system nude mice (Balb/cAnNRj-Foxn1nu/nu); conditions: male, Balb/cAnNRj-Foxn1nu/nu (nude), mouse, iv, total radioactivity; for tissue uptake: U87MG tumor (integrin αvβ3-positive); for tissue uptake / tissue uptake at 1.5 h: ex vivo after PET/CT scan, i.v., n = 3; for tissue to tissue ratio: ex vivo biodistribution, mean (n = 3) ± SD; for tissue uptake at 1.5 h: U87MG tumor
Description: as §1, §2

[5] = logD(7.4) determination (n-octanol / phosphate buffer distribution); type: physicochemical; conditions: n-octanol / 0.05 M phosphate buffer pH 7.4; mean ± SD
Description: Since high lipophilicity of peptidic radiotracers can lead to a high plasma protein binding, resulting in unspecific organ and high liver uptakes, thus negatively impact tumor visualization, the lipophilicity of the HBPLs was determined to get an approximate estimation of the in vivo biodistribution behavior of the radioligands. Therefore, the logD(7.4) values of the SiFAlin-modified HBPLs [^18F]1–[^18F]6 were determined via their distribution coefficient between n-octanol and phosphate buffer at pH 7.4.
The radiotracer solutions were first diluted with 0.9% NaCl solution to give a final EtOH concentration of <10%. A total of 5 MBq of the respective radiotracer in solution was added to 1.6 mL of a mixture of n-octanol and 0.05 M phosphate buffer (pH = 7.4) (v/v, 1/1), and the solution was vigorously shaken for 5 min. Subsequently, the phases were separated by centrifugation at 13.4 rpm for 2 min, and 100 μL of organic and aqueous phases were collected. The activity of each sample was measured using a gamma counter. The lipophilicity of each compound was determined in triplicate in three independent experiments.

[6] = NDP blocking (20 μg coinjected)
[7] = c(RGDyK) blocking (200 μg coinjected)
[8] = double blocking (NDP + c(RGDyK))
[9] = U87MG tumor / blood, without blocking, read-out: tumor/blood ratio, U87MG
[10] = U87MG tumor / kidneys, without blocking, read-out: tumor/kidneys ratio, U87MG
[11] = U87MG tumor / liver, without blocking, read-out: tumor/liver ratio, U87MG
[12] = U87MG tumor / muscle, without blocking, read-out: tumor/muscle ratio, U87MG

Structure (SMILES)	visualization of B16F10 and U87MG tumors by PET/CT [1]	time at which uptakes in kidneys and liver reached their maximum (TACs) [1] [min]	time at which the curves of both tumors approached a plateau (TACs) [1]	remaining at 2 h [2] [%]	ID/g, U87MG tumor [3] [% ID/g]	tissue uptake [4, 6] [%ID/g]	tissue uptake [4, 7] [%ID/g]	tissue uptake [4, 8] [%ID/g]	tissue uptake ([4]; without blocking) [%ID/g]	tissue to tissue ratio [4, 9]	tissue to tissue ratio [4, 10]	tissue to tissue ratio [4, 11]	tissue to tissue ratio [4, 12]	tissue uptake at 1.5 h ([4]; without blocking) [%ID/g]	logD [5]
CCCC[C@H](NC(=O)CNC(=O)CNC(=O)CCOCCOCCOCCOCCC(=O)NCCCN(CCCNC(=O)CCOCCOCCOCCOCCC(=O)NCCCC[C@@H]1NC(=O)[C@@H](Cc2ccccc2)NC(=O)[C@H](CC(=O)O)NC(=O)CNC(=O)[C@H](CCCNC(=N)N)NC1=O)CC(=O)N[C@@H](CCCCNC(=O)CCC[N+](C)(C)Cc1ccc([Si](F)(C(C)(C)C)C(C)(C)C)cc1)C(N)=O)C(=O)N[C@H]1CC(=O)NCCCC[C@@H](C(N)=O)NC(=O)[C@H](Cc2c[nH]c3ccccc23)NC(=O)[C@H](CCCNC(=N)N)NC(=O)[C@@H](Cc2ccccc2)NC(=O)[C@H](Cc2c[nH]cn2)NC1=O [[^18F]2]	clearly visualize	5 to 10	about 70 min	85.4 ± 2.8	1.48 ± 0.12	3.19 ± 0.33	1.48 ± 0.12	1 ± 0.11	2.33 ± 0.46	2.4 ± 0.67	0.18 ± 0.02	0.14 ± 0.03	0.79 ± 0.66	2.33 ± 0.46	-1.19 ± 0.05
CCCC[C@H](NC(=O)CNC(=O)CNC(=O)CCOCCOCCOCCOCCOCCOCCOCCOCCOCCC(=O)NCCCN(CCCNC(=O)CCOCCOCCOCCOCCOCCOCCOCCOCCOCCC(=O)NCCCC[C@@H]1NC(=O)[C@@H](Cc2ccccc2)NC(=O)[C@H](CC(=O)O)NC(=O)CNC(=O)[C@H](CCCNC(=N)N)NC1=O)CC(=O)N[C@@H](CCCCNC(=O)CCC[N+](C)(C)Cc1ccc([Si](F)(C(C)(C)C)C(C)(C)C)cc1)C(N)=O)C(=O)N[C@H]1CC(=O)NCCCC[C@@H](C(N)=O)NC(=O)[C@H](Cc2c[nH]c3ccccc23)NC(=O)[C@H](CCCNC(=N)N)NC(=O)[C@@H](Cc2ccccc2)NC(=O)[C@H](Cc2c[nH]cn2)NC1=O [[^18F]4]	clearly visualize	5 to 10	about 70 min	83.6 ± 0.8	2.67 ± 0.66	2.53 ± 0.15	2.67 ± 0.66	0.9 ± 0.05	3.92 ± 1.31	5.08 ± 0.75	0.4 ± 0.07	0.39 ± 0.14	45.7 ± 8.62	3.92 ± 1.31	-1.39 ± 0.03
